In patent US4443626A, “2,3-Dihydro-indene derivatives” (Hisamitsu Pharmaceutical Co., Inc., priority 1982, dated 1984) one finds inhibition in vivo and Lethality data, which are given here for 12 compounds.

One data set concerns passive Arthus reaction. In words: Effect on passive Arthus reaction in rats (hind paw swelling). The data set is classed as in vivo, rat (Wistar strain, male). Conditions: Rattus norvegicus, po, 3 h, read-out: Swelling inhibiting ratio; for inhibition in vivo at 100 mg/kg: 100 mg/kg orally, one hour before induction, hind paw volume measured three hours after induction, anti BSA rabbit serum / BSA, relative to control group. The procedure: Effect on passive Arthus reaction in rats
The rats which had been fasted for 18 hours were sensitized by injecting 0.3 ml of a 10% solution of an anti BSA rabbit serum (precipitation titer, 32 times) to them at the tail vein. […] On the other hand, only the vehicle was administered to the remainder of the test animals. [formula]

The next data set has as its system mice. In words: Test for acute toxicity on mice. The data set is classed as in vivo. Conditions: one week after the administration, dead/tested. The source says:
Test for acute toxicity on mice
Groups each consisting of 6 male mice of ddY strain weighing between 22 and 26 g were used in this experiment.
Suspensions of the test compounds and indomethacin as the control in an 0.5% aqueous solution of tragacanth were orally administered respectively to the test animals, after which the test animals had been observed for a week to find the lethality thereof.

Turning to `O=C(O)CCC1Cc2ccc(F)cc2C1=O` (stereo not shown) [Example 6, 6-fluoro-1-oxo-2,3-dihydro-2-indene propionic acid], the inhibition in vivo at 100 mg/kg with passive Arthus reaction is 39.4%. The values for the Lethality in the data set on mice (500 mg/kg orally), with mice (1,000 mg/kg orally) and in the data set on mice (2,000 mg/kg orally) were 0/6, 0/6 and 2/6, respectively.

For the compound `O=C(O)CCCCC1Cc2cc(Cl)ccc2C1=O` (stereo not shown) [Example 15, 5-chloro-1-oxo-2,3-dihydro-2-indene valeric acid], the inhibition in vivo at 100 mg/kg in the data set with passive Arthus reaction was 35.3%. Further, in the data set with mice (2,000 mg/kg orally), the Lethality was 0/6.

Regarding `O=C(O)CCC1Cc2c(F)cccc2C1=O` (stereo not shown) [Example 5, 4-fluoro-1-oxo-2,3-dihydro-2-indene propionic acid], the inhibition in vivo at 100 mg/kg in the data set on passive Arthus reaction turned out to be 41.7%. For the same compound, the Lethality with mice (2,000 mg/kg orally) was 2/6.

For `O=C(O)CCCC1Cc2ccc(F)cc2C1=O` (stereo not shown) [Example 1, 6-fluoro-1-oxo-2,3-dihydro-2-indene butyric acid], in the data set with passive Arthus reaction, the inhibition in vivo at 100 mg/kg worked out at 26.7%. In the data set on mice (2,000 mg/kg orally), the Lethality was 1/6.

In the case of `O=C(O)CCCCC1Cc2ccc(Cl)cc2C1=O` (stereo not shown) [Example 16, 6-chloro-1-oxo-2,3-dihydro-2-indene valeric acid], the inhibition in vivo at 100 mg/kg with passive Arthus reaction turned out to be 16.2%.

`COc1ccc2c(c1)c(CC(=O)O)c(C)n2C(=O)c1ccc(Cl)cc1` [Indomethacin, indomethacin, reference compound]: in the data set with passive Arthus reaction, the inhibition in vivo at 5 mg/kg came to 8.1%. In the data set with mice (50 mg/kg orally), the Lethality is listed as 6/6.

For the compound `O=C(O)CCCC1Cc2ccc(Cl)cc2C1=O` (stereo not shown) [Example 2, 6-chloro-1-oxo-2,3-dihydro-2-indene butyric acid], the inhibition in vivo at 100 mg/kg in the data set with passive Arthus reaction amounted to 37.7%. In the data set with mice (2,000 mg/kg orally), the Lethality was 2/6.

Regarding `O=C(O)CCCC1Cc2c(Cl)cccc2C1=O` (stereo not shown) [Example 11, 4-chloro-1-oxo-2,3-dihydro-2-indene butyric acid], the inhibition in vivo at 100 mg/kg in the data set with passive Arthus reaction was 13.9%.

On to `O=C(O)CCC1Cc2cc(Cl)ccc2C1=O` (stereo not shown) [Example 8, 5-chloro-1-oxo-2,3-dihydro-2-indene propionic acid], for which the inhibition in vivo at 100 mg/kg with passive Arthus reaction was 17.5%.

As for `O=C(O)CCC1Cc2ccc(Cl)cc2C1=O` (stereo not shown) [Example 3, 6-chloro-1-oxo-2,3-dihydro-2-indene propionic acid], the inhibition in vivo at 100 mg/kg with passive Arthus reaction is 13.7%.

Turning to `O=C(O)CCCCC1Cc2c(Cl)cccc2C1=O` (stereo not shown) [Example 14, 4-chloro-1-oxo-2,3-dihydro-2-indene valeric acid], the inhibition in vivo at 100 mg/kg in the data set with passive Arthus reaction was 18.6%. Also, the Lethality with mice (2,000 mg/kg orally) is reported as 0/6.

Consider `O=C(O)CCCC1Cc2c(Cl)cc(Cl)cc2C1=O` (stereo not shown) [Example 13, 4,6-dichloro-1-oxo-2,3-dihydro-2-indene butyric acid], for which the inhibition in vivo at 100 mg/kg with passive Arthus reaction came out at 22.5%. Further, the Lethality with mice (2,000 mg/kg orally) was 1/6.
